Measured values taken from patent publication US20190350909A1, “COMPOSITIONS AND METHODS FOR MODULATING HAIR GROWTH” (priority 2018, published 2019).
“Also recorded” adds a separate entry of the source.

Tests used:
Assay type in all cases: in vivo, C57BL/6 mice
Creb (pCreb) = test: Immunohistochemistry of treated skin for Creb signaling, HFSC and proliferation markers
Experimental: (§1) Wildtype male and female 49-day old C57BL/6 mice were obtained from Jackson Laboratories for all topical experiments. All animals were maintained in UCLA's Division of Laboratory Medicine (DLAM)-approved pathogen-free barrier facilities and procedures were performed using protocols that adhere to the standards of the UCLA Animal Research Committee (ARC), Office of Animal Research Oversight (OARO), and the National Institutes of Health (NIH).
All drugs were suspended in DMSO and aliquoted at approximately 5 times IC50 or EC50 for the purposes of penetrating the epidermal barrier upon in vivo application. Aliquots were then mixed with the appropriate volume of Premium Lecithin Organogel (PLO) Base (Transderma Pharmaceuticals Inc.) and topically applied onto the shaved dorsal skin of 49 day old telogen-stage mice. Three experiment timepoints were used: acute treatment (two doses across 48 hours), 1 week treatment (three doses across five days) or long-term studies (one dose three times a week for approximately 1.5 weeks). Full-thickness dorsal skin was collected for histological analysis, cryosectioning, RNA isolation, and/or for epidermal stem cell isolation according to well-established FACS protocol. […]

hair cycle = test: Hair cycle analysis after topical treatment of shaved dorsal skin of telogen-stage mice; settings: topical treatment during telogen, macroscopic and H&E follicle morphology (FIG. 2A-2C)
Experimental: as §1
(§2) All drugs were suspended in DMSO and aliquoted at approximately 5 times IC50 or EC50 for the purposes of penetrating the epidermal barrier upon in vivo application. Aliquots were then mixed with the appropriate volume of Premium Lecithin Organogel (PLO) Base (Transderma Pharmaceuticals Inc.) and topically applied onto the shaved dorsal skin of 49 day old telogen-stage mice. Three experiment timepoints were used: acute treatment (two doses across 48 hours), 1 week treatment (three doses across five days) or long-term studies (one dose three times a week for approximately 1.5 weeks). Full-thickness dorsal skin was collected for histological analysis, cryosectioning, RNA isolation, and/or for epidermal stem cell isolation according to well-established FACS protocol.
Hair cycles were assessed macroscopically by observational and photographic documentation. A scale was established to grade hair cycle stage: 1) telogen (pink, white skin when dorsally shaved); 2) pigmentation (broad blue/grey pigment spots/patches on shaved dorsal area); 3) hair growth (dark pigmentation coupled with small patches of fur); 4) anagen (dark, full patches of fur within dorsal area) in relation to number of doses and elapsed time of treatment. H&E images of all treatment conditions were imaged at 20× magnification to assess morphological changes in control and treated skin. Hair cycle stages were also evaluated by follicular morphology into respective telogen, telogen-to-anagen transition, or anagen categories.
A set of full-thickness skin samples were obtained from post-mortem tissue harvesting, fixed overnight in 4% paraformaldehyde, and then dehydrated for paraffin embedding and slide generation; hematoxylin and eosin staining according to standard protocol. For immunohistochemistry, formalin-fixed, paraffin-embedded tissue slides were cleared and rehydrated through a series of ethanol washes. Antigen retrieval (20 min in pressure cooker, microwaved at 100 power) was performed with 10 mM citrate. Slides were incubated in hydrogen peroxide (30 min at 4 C) and then blocked with 10% goat serum/0.1% tween for 1 hour at room temperature. Primary antibodies were added and incubated overnight. The following antibodies were used—rabbit pCreb (Cell Signaling 9198, 1:800); rabbit Sox9 (Abcam 185966, 1:800); rabbit Ki67 sp6 (Abcam 16667, 1:50); rabbit PCNA (Cell Signaling 13110, 1:700); rabbit cFos (Abcam 7963, 1:100). Sections were washed the following day with 0.1% PBST and incubated with rabbit secondary HRP-labeled polymer (Dako) for 1 hour at room temperature, and then quickly washed with 0.1% PBST and PBS. AEC chromogen (Vector) was used for the colometric development reaction. Slides were then briefly counterstained with hemotoxylin, mounted with Faramount Aqueous Mounting Media (Dako) and sealed for subsequent visualization by light microscopy.
Bright-field immunohistochemistry and hematoxylin/eosin-stained images were captured using an Olympus BX51 light microscope at 20× magnification or 40× using oil immersion.

[1] = system: lactate dehydrogenase (Ldh); test: Ldh activity assay (in situ and plate reader) on treated skin/epidermis; settings: epidermis isolated from treated male or female animals (FIG. 4A)
Experimental: as §1, §2

Ldha protein, pCreb = test: Western blot of epidermis from treated animals for pCreb and Ldha protein; settings: epidermis from treated animals (FIG. 4C)
Experimental: Wildtype male and female 49-day old C57BL/6 mice were obtained from Jackson Laboratories for all topical experiments. All animals were maintained in UCLA's Division of Laboratory Medicine (DLAM)-approved pathogen-free barrier facilities and procedures were performed using protocols that adhere to the standards of the UCLA Animal Research Committee (ARC), Office of Animal Research Oversight (OARO), and the National Institutes of Health (NIH). […] All drugs were suspended in DMSO and aliquoted at approximately 5 times IC50 or EC50 for the purposes of penetrating the epidermal barrier upon in vivo application. […] Three experiment timepoints were used: acute treatment (two doses across 48 hours), 1 week treatment (three doses across five days) or long-term studies (one dose three times a week for approximately 1.5 weeks). Full-thickness dorsal skin was collected for histological analysis, cryosectioning, RNA isolation, and/or for epidermal stem cell isolation according to well-established FACS protocol.

Row | Compound | activation of Creb (pCreb) by immunohistochemistry (Creb (pCreb); acute 48 hours topical treatment, HFSCs and IFE (FIG. 3B)) | canonical Creb target expression (cFos staining) (Creb (pCreb); acute treatment (FIG. 3B)) | effect on hair cycle progression / reentry into anagen (hair cycle) | relative Ldh activity in lysed epidermis [1] | effect on hair cycle progression / reentry into anagen (hair cycle; listed as H-89) | Creb activation (pCreb) (western blot) (Ldha protein, pCreb)
1 | COc1ccccc1NC(=O)CSc1nc2c(cc1C#N)=CC1OCCOC1C=2 (stereo not shown) [#44] | activation of Creb (pCreb) in HFSCs (and IFE) | induced levels of transcript for canonical Creb targets | accelerated reentry into anagen; also recorded: strongly accelerate the hair cycle; also recorded: accelerated hair growth | high Ldh activity | – | –
2 | COc1ccc(NC(=O)CSc2nc3c(cc2C#N)=CC2OCCOC2C=3)c(OC)c1 (stereo not shown) [#61] | – | – | accelerated reentry into anagen; also recorded: strongly accelerate the hair cycle; also recorded: accelerated hair growth | – | – | –
3 | CCOc1ccc(OCC)c(NC(=O)CSc2nc3c(cc2C#N)=CC2OCCOC2C=3)c1 (stereo not shown) [#62] | – | – | strongly accelerate the hair cycle | – | – | –
4 | O=S(=O)(NCCNC/C=C/c1ccc(Br)cc1)c1cccc2cnccc12 [H89, reference compound] | – | – | slowed hair cycle progression; also recorded: delays reentry into anagen; also recorded: slowed the hair cycle dramatically | did not demonstrate altered Ldh activity | delayed reentry into anagen | inhibition of Creb
